Measured values taken from patent US20100178365A1, “EPICATECHIN DEFICIENT GREEN TEA” (priority 2007, published 2010).

Columns and labels:
[1] = intraperitoneal glucose tolerance test after intravenous epicatechin (FIG. 1); format: in vivo; conditions: rats; epicatechin intravenously 30 min before glucose loading 2 g/kg
Method: Each epicatechin was injected intravenously 30 min before the glucose loading.

[2] = system: cultured adipocytes, myocytes and hepatocytes; assay: glucose uptake ability at cultured cells (FIG. 3); format: cell-based; conditions: for normal glucose uptake mechanism after a meal: hepatocytes, adipocytes and muscle cells
Source text: We can see that basal glucose uptake ability and insulin stimulated glucose uptake ability decreased based on the given EGCG concentration.

KATP channels = assay: inhibition of KATP channels and their ATP/PIP sensitivity; format: biochemical; conditions: for effect on KATP channels: via allosteric interactions with phospholipids of the lipid membrane
Method: EGCG and ECG with gallate ester groups inhibited KATP channels via allosteric interactions with phospholipids of the lipid membrane. But the effective EGCG concentration was more than 10 μM. Further, EGCG is the only green tea epicatechin that decreases the sensitivity of ATP and PIP to the KATP channel. By this mechanism, we concluded that EGCG caused decrease in insulin secretion in response to glucose in the β-cell of pancreas. Patients with diabetes or people with a risk factor for diabetes should be careful because the effective concentration of EGCG for this mechanism could be 1-10 μM, which is an achievable concentration when a person drinks 2-8 cups of green tea while fasting.

[3] = adipocytes, myocytes and hepatocytes, based on the given EGCG concentration

Row | Structure (SMILES) | blood glucose concentration during intraperitoneal glucose tolerance test [1] | normal glucose uptake mechanism after a meal [2] | effect on KATP channels (KATP channels) | blood EGCG level at which the glucose uptake inhibition can occur [2] | basal glucose uptake ability [2, 3] | insulin stimulated glucose uptake ability [2, 3] | effective concentration for KATP channel inhibition (KATP channels) | sensitivity of ATP and PIP to the KATP channel (KATP channels) | effective concentration for decreasing ATP and PIP sensitivity of the KATP channel (KATP channels; stated as 'could be') [µM]
1 | O=C(O[C@@H]1Cc2c(O)cc(O)cc2O[C@@H]1c1ccc(O)c(O)c1)c1cc(O)c(O)c(O)c1 [ECG, (−)-epicatechin-3-gallate] | High blood glucose level | inhibited | inhibited | – | – | – | – | – | –
2 | O=C(O[C@@H]1Cc2c(O)cc(O)cc2O[C@@H]1c1cc(O)c(O)c(O)c1)c1cc(O)c(O)c(O)c1 [EGCG, (−)-epigallocatechin-3-gallate] | High blood glucose level | inhibited | inhibited | lower than 10 μM | decreased | decreased | more than 10 μM | decreases | 1 to 10
